Results on 3 molecules are retold here after ChEMBL document CHEMBL6078706, “Deciphering the Comprehensive Structure-Activity Relationship of Sunshinamide for Breast Cancer Therapy through Dual Modulation of Apoptotic and Ferroptotic Pathways via TrxR1 and Gpx4 Inhibition” (J Med Chem, 2024).

Activity calls are given as the source filed them. The rule behind the calls is not given here.

Data set [1] concerns MDA-MB-468. Kind of data set: Induction of endoplasmic reticulum (ER) stress-mediated apoptosis in human MDA-MB-468 cells assessed as increase in CHOP expression at 25 nM measured after 12 hrs by Western blot analysis. Type of data set: functional, cell-based. A general note: Immunoblotting shows a protein as a band on a membrane.
Data set [2] has as its system MDA-MB-468. Kind of data set: Effect on TRXR1 expression in human MDA-MB-468 cells at 25 nM incubated for 24 hrs by Western blot analysis. Type of data set: functional, cell-based.
For a further data set, the system named is HEK293. Kind of data set: Antiproliferative activity against human HEK293 cells assessed as cell viability upto 50 nM incubated for 48 hrs by MTT assay. It counts as toxicity, cell-based. Particulars: hek293, 48 h, 0.05 µM. In general terms: Formazan colour is commonly taken as a measure of viable cells.
Data set [3] relates to MDA-MB-468. As to the kind of experiment: Induction of endoplasmic reticulum (ER) stress-mediated apoptosis in human MDA-MB-468 cells assessed as increase in phospho-eIF2alpha level at 25 nM measured after 12 hrs by Western blot analysis. It counts as functional, cell-based.
Data set [4] concerns MDA-MB-468. As to the kind of experiment: Induction of ROS production in human MDA-MB-468 cells expressing TrxR1 assessed as reduction in ROS level at 25 nM incubated for 6 hrs by DCFH-DA staining based flow cytometry analysis. It counts as functional, cell-based.
For data set [5], the system named is MDA-MB-468. Kind of data set: Induction of apoptosis in CHOP knockdown human MDA-MB-468 cells assessed as increase in caspase 3/7 activation at 25 nM measured at 12 hrs by Western blot analysis. Type of data set: functional, cell-based.
Data set [6] relates to MDA-MB-468. As to the kind of experiment: Induction of endoplasmic reticulum (ER) stress-mediated apoptosis in human MDA-MB-468 cells assessed as increase in p-PERK level at 25 nM measured after 12 hrs by Western blot analysis. Type of data set: functional, cell-based.
The test system of data set [7] is MDA-MB-468. Kind of data set: Antiproliferative activity against human MDA-MB-468 cells expressing GPX4 assessed as cell viability at 25 nM incubated for 48 hrs by MTT assay. Type of data set: functional, cell-based.
Data set [8] has as its system MDA-MB-468. Kind of data set: Induction of ferroptosis in human MDA-MB-468 cells assessed as reduction in intracellular GSH level at 25 nM incubated for 12 hrs. It counts as functional, cell-based.
Data set [9] relates to MDA-MB-468. As to the kind of experiment: Antiproliferative activity against human MDA-MB-468 cells expressing TrxR1 assessed as reduction in cell viability at 50 nM incubated for 48 hrs by MTT assay. Type of data set: functional, cell-based.
Data set [10] concerns the target T1, Cystine/glutamate transporter (Homo sapiens) (UniProt Q9UPY5).
T1 sequence (whole entry): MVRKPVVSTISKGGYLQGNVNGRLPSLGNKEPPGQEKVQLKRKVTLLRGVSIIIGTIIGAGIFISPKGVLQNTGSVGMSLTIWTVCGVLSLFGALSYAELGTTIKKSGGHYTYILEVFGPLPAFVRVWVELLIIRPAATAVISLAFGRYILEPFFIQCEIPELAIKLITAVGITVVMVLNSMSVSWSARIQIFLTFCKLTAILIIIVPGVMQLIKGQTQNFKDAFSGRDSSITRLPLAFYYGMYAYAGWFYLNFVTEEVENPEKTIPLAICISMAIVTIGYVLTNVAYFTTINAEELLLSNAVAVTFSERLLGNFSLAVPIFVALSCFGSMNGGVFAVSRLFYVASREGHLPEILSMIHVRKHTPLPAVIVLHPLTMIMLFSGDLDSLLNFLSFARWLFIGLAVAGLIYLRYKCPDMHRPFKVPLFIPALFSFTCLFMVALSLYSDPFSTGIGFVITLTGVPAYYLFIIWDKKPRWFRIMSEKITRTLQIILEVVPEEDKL
As to the kind of experiment: Inhibition of Xc- in human MDA-MB-468 cells assessed as decrease in glutamate release at 25 nM incubated for 12 hrs. It counts as cell-based.

For data set [11], the system named is MDA-MB-468. As to the kind of experiment: Induction of ferroptosis in human MDA-MB-468 cells assessed as decrease in MDA level at 25 nM in presence of ferrostatin-1. Type of data set: functional, cell-based.
Data set [12] relates to MDA-MB-468. As to the kind of experiment: Induction of endoplasmic reticulum (ER) stress-mediated apoptosis in human MDA-MB-468 cells assessed as reduction in CHOP expression at 25 nM measured for 12 hrs in presence of 4-PBA by Western blot analysis. Type of data set: functional, cell-based.
Data set [13] relates to MDA-MB-468. Kind of data set: Induction of endoplasmic reticulum (ER) stress-mediated apoptosis in human MDA-MB-468 cells assessed as increase in ATF4 expression at 25 nM measured after 12 hrs by Western blot analysis. Type of data set: functional, cell-based.
Data set [14] addresses T2, Thioredoxin reductase 1, cytoplasmic (Homo sapiens) (UniProt Q16881).
T2 sequence (whole entry): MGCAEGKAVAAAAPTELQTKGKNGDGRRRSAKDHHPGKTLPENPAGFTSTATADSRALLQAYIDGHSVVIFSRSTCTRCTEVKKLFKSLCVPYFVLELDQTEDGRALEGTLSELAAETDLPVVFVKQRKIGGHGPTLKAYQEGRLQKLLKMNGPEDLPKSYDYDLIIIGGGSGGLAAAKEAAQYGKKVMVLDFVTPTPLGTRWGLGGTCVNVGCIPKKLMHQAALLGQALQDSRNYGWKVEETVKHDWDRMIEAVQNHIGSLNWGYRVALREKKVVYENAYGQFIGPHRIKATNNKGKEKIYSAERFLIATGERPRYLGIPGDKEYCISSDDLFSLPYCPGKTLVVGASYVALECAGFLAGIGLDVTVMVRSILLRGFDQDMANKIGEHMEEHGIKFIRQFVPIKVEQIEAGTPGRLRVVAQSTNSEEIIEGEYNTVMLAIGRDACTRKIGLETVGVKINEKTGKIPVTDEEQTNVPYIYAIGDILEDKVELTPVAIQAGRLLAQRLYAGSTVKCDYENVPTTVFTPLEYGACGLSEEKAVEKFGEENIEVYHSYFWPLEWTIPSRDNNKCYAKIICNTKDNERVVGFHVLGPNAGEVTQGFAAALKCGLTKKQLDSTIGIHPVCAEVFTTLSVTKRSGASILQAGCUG
As to the kind of experiment: Inhibition of TRXR1 in human MDA-MB-468 cells incubated for 24 hrs by. Type of data set: cell-based.

For data set [15], the system named is MDA-MB-468. Kind of data set: Induction of ferroptosis in human MDA-MB-468 cells assessed as increase in cell viability at 25 nM incubated for 48 hrs in presence of ferrostatin-1. Type of data set: functional, cell-based.
Data set [16] deals with MDA-MB-468. Kind of data set: Induction of apoptosis in human MDA-MB-468 cells transfected with ATF4 SiRNA assessed as increase in caspase 3/7 activation at 25 nM measured at 12 hrs by Western blot analysis. Type of data set: functional, cell-based.
Data set [17] concerns MDA-MB-468. Kind of data set: Induction of ferroptosis in human MDA-MB-468 cells assessed as increase in MDA level at 25 nM. Type of data set: functional, cell-based.
The test system of data set [18] is MDA-MB-468. Kind of data set: Induction of ferroptosis in human MDA-MB-468 cells assessed as decrease in 4-HNE level at 25 nM in presence of ferrostatin-1. Type of data set: functional, cell-based.
The test system of data set [19] is MDA-MB-468. Kind of data set: Induction of apoptosis in human MDA-MB-468 cells assessed as increase in caspase 3/7 activation at 25 nM measured at 12 hrs in presence of 4-PBA by Western blot analysis. It counts as functional, cell-based.
Data set [20] deals with MDA-MB-468. As to the kind of experiment: Induction of ferroptosis in human MDA-MB-468 cells assessed as decrease in lipid peroxidation level at 25 nM incubated for 6 hrs in presence of ferrostatin-1 by C11-BODIPY staining based flow cytometry analysis. It counts as functional, cell-based. On the technique in general: In flow cytometry, cells or beads pass a laser one at a time.

Data set [21] concerns MDA-MB-468. As to the kind of experiment: Induction of ferroptosis in human MDA-MB-468 cells assessed as increase in 4-HNE level at 25 nM. Type of data set: functional, cell-based.
Data set [22] concerns MDA-MB-468. As to the kind of experiment: Induction of ferroptosis in human MDA-MB-468 cells assessed as lipid peroxidation level by measuring fluorescence intensity at 25 nM incubated for 6 hrs in presence of ferrostatin-1 by C11-BODIPY staining based microscopic analysis. It counts as functional, cell-based.

As for `CCCCCCC[C@@H]1CC(=O)N[C@H](Cc2ccccc2)C(=O)N[C@@H](CSC)C(=O)N[C@@H](CSC)C(=O)O1`, the result in the data set with MDA-MB-468 [1], in the data set with MDA-MB-468 [2], with MDA-MB-468 [3], with MDA-MB-468 [6], in the data set on MDA-MB-468 [7] and in the data set on MDA-MB-468 [8] was inactive. Moreover, the result in the data set with MDA-MB-468 [12], with MDA-MB-468 [13], in the data set on MDA-MB-468 [15], in the data set with MDA-MB-468 [17] and with MDA-MB-468 [21] was inactive. Moreover, the Activity entry in the data set on HEK293 is “Non-toxic”. Further, the result in the data set on MDA-MB-468 [4], with MDA-MB-468 [5], in the data set with MDA-MB-468 [9], with MDA-MB-468 [11], with MDA-MB-468 [16] and in the data set on MDA-MB-468 [18] was Active. In addition, the result with MDA-MB-468 [19], in the data set on MDA-MB-468 [20] and in the data set on MDA-MB-468 [22] was Active. For the same molecule, the inhibition entry in [10] was “inactive”. Besides, the inhibition result in data set [14] is “Active”.
With `CCCCCCC[C@@H]1CC(=O)N[C@H](Cc2ccccc2)C(=O)N[C@H]2CSSC[C@H](NC2=O)C(=O)O1`, the result with MDA-MB-468 [1], in the data set with MDA-MB-468 [3], in the data set with MDA-MB-468 [4], in the data set on MDA-MB-468 [5], in the data set on MDA-MB-468 [6] and with MDA-MB-468 [9] was Active. The result in the data set on MDA-MB-468 [11], with MDA-MB-468 [12], in the data set on MDA-MB-468 [13], with MDA-MB-468 [16], in the data set with MDA-MB-468 [18] and in the data set on MDA-MB-468 [19] was Active. In addition, the result with MDA-MB-468 [20] and with MDA-MB-468 [22] was Active. Further, the outcome in the data set on MDA-MB-468 [2], in the data set on MDA-MB-468 [7], in the data set on MDA-MB-468 [8], in the data set with MDA-MB-468 [15], in the data set on MDA-MB-468 [17] and in the data set with MDA-MB-468 [21] was inactive. Also, the Activity result in the data set on HEK293 is listed as “Non-toxic”. Also, in data set [10], the inhibition result was “inactive”. The inhibition entry in [14] was “Active”.
Take `CCCCCCC[C@@H](O)CC(=O)N[C@H](Cc1ccccc1)C(=O)N[C@H]1CSSC[C@@H](C(=O)O)NC1=O`: the outcome in the data set on MDA-MB-468 [1], in the data set with MDA-MB-468 [2], in the data set on MDA-MB-468 [3], with MDA-MB-468 [6], in the data set with MDA-MB-468 [7] and in the data set on MDA-MB-468 [8] was inactive. Also, the result in the data set with MDA-MB-468 [12], in the data set with MDA-MB-468 [13], with MDA-MB-468 [15], with MDA-MB-468 [17] and in the data set on MDA-MB-468 [21] was inactive. Also, the Activity entry in the data set on HEK293 is on record as “Non-toxic”. The outcome with MDA-MB-468 [4], in the data set on MDA-MB-468 [5], in the data set with MDA-MB-468 [9], in the data set with MDA-MB-468 [11], in the data set on MDA-MB-468 [16] and in the data set on MDA-MB-468 [18] was Active. Besides, the result with MDA-MB-468 [19], with MDA-MB-468 [20] and in the data set with MDA-MB-468 [22] was Active. For the same molecule, the inhibition entry in [10] is “inactive”. In addition, the inhibition entry in data set [14] was “Active”.
